Assays:
MCF7 [1] = assay: Antiproliferative activity against human MCF7 cells after 2 days by MTT assay; format: functional, cell-based; conditions: for IC50: MCF7, 48 h
MCF7 [2] = assay: Antiproliferative activity against human MCF7 cells at 0.01 to 100 nmol/L after 2 days by MTT assay; format: functional

Row | SMILES | IC50 (MCF7 [1]) [µM] | Activity (MCF7 [2]) | Activity (MCF7 [1])
1 | C/C(=C\c1csc(C)n1)[C@@H]1C[C@@H]2O[C@]2(C)CCC[C@H](C)[C@H](OC(=O)CO[C@@H]2O[C@H](CO)[C@H](O)[C@H](O)[C@H]2O)[C@@H](C)C(=O)C(C)(C)[C@@H](O)CC(=O)O1 | 5.73 | 7.9 - 98.6% | 
2 | C/C(=C\c1csc(C)n1)[C@@H]1C[C@@H]2O[C@]2(C)CCC[C@H](C)[C@H](O)[C@@H](C)C(=O)C(C)(C)[C@@H](O)CC(=O)O1 [PATUPILONE] | 0.0382 | 3 - 80.3% | Dose-dependent effect
